Results as given in patent US12421489B2, “Biological control of plant pathogenic microorganisms” (priority 2016, dated 2025).

How the values were obtained:
Type in all cases: in vivo
[1] = tested on: Pseudomonas syringae pv. actinidiae (Psa); assay: Field trials 2015-16: foliar sprays on ‘Hayward’ vines, Blocks B and C, Maketu; conditions: mean of Blocks B and C
Description: Grower standard treatment: Kocide Opti+1×Kasumin
Two field trial sites were established during spring 2015 with the intention of running across two consecutive seasons. The two ‘Hayward’ blocks (coded Block B and C) were located in separate orchards, near Maketu, Bay of Plenty. Block C was the same orchard as the 2014-15 trial, but a different area in the blocks was used. Vines in all blocks were pergola trained with a single vine per bay. The vines generally looked healthy at the commencement of the trial, but had suffered from significant Psa symptoms 2-3 years previously, according to the grower.
The spray treatments were applied to individual vines (eight replicates per treatment) laid out in a randomised block design. The treatments were: • 1. Nil—no Psa control products applied during the growing season • 2. Grower standard—copper-based foliar spray programme, including up to one antibiotic spray • 3. YBCA5—yeast-based foliar spray programme (2×10^7 CFU/mL)
Spray applications in the Grower standard and YBCA5 treatments were applied according to the schedule in Table 5. Common agricultural adjuvants were added to the Grower standard (0.04% Du-Wett®) and YBCA5 (0.03% Nu-Film-17@) applications.
The YBCA5 yeast was produced by liquid fermentation, sourced from three separate production facilities: PFR (Ruakura), AgResearch (Lincoln) and Callaghan Innovation (Lower Hutt). A concentrated yeast pellet after centrifugation was supplied to the laboratory at Ruakura and this was mixed with an inert carrier and extruded to form granules which were air dried overnight in a laminar flow hood. The number of colony forming units/g was calculated by dissolving 0.2 g samples into 20 mL phosphate buffered saline amended with 0.05% Tween 80 (PBSTw). This was serially diluted and 10-μL droplets of each dilution were transferred to Petri dishes with malt yeast extract agar amended with chloramphenicol. Petri dishes were incubated for 24 h at 25° C. and then 4-6° C. for a further 24 h, prior to counting the number of colonies. […]
Psa disease assessments were carried out in the ‘Hayward’ blocks just prior to flowering on 11 Nov. […] Assessments were commenced after taking one step (i.e. 1 m) from the edge of the plot and a set of 25 leaves were scored. […] This was then repeated down the other side of the vine so that four sets of 25 leaves (total=100) were scored within each plot. Similarly, 100 buds/plot were scored for the severity of bud-browning, as described above.
Data were expressed as Psa incidence (based on the proportion of leaves with Psa spotting/proportion of buds with brown sepals) and average Psa severity (mean % leaf area necrotic/mean number of brown sepals on buds). Data were log-transformed and analysed by ANOVA using Genstat (ver. 16) to determine treatment differences. […]

Botrytis spp. [2] = assay: Grape inoculation assay 5: Botrytis spp. rot of wounded table grape berries; conditions: Assay 5, wounded table grapes, 9 days, mean of two Botrytis spp. isolates; nil 30%; significantly reduced (P<0.001)
Experimental: Fruit assays were carried out on detached white table grape berries (‘Thompson seedless’—Assay 5), imported from California that were sourced from a local supermarket in Hamilton. Each berry was detached from the bunch with 3-4 mm of pedicel remaining and then subjected to a double wash process. Wash one consisted of 10 minutes in tap water on a rotary shaker (110 rpm) followed by a five minute wash in SDW (Wash 2). All berries were placed onto sterile black plastic grids in a sterile plastic meat tray with two sterile paper towels and were allowed to dry in a laminar flow hood. Each berry was lightly wounded with the aid of fine sandpaper, Grade P220, then dipped in the treatments for 60 seconds and again allowed to dry.
YBCA5 granules were prepared by fermenting the yeast for 3 days in a 10 L bioreactor (Labfors) using sterile liquid media (4% molasses and 1.2 g/L urea). […]
Botrytis spp. inoculum was prepared by growing each isolate of Botrytis spp. for 5-7 days on PDA (DIFCO, Fort Richard) medium and harvesting the conidia by washing the plate with SDW plus Tween 80 (0.01%) to make a stock suspension of inoculum. This stock suspension was then filtered using a cell strainer (70 μm mesh, Falcon) to remove mycelial fragments, the concentration determined using a haemocytometer and adjusted to the required concentration (2×10^4 conidia/mL) equivalent to 200 conidia in each 10 μL droplet. […]

Monilinia fructicola = assay: Cherry inoculation assays 1 and 3: Monilinia fruit rot of ‘Sweet Valentine’ cherries, dip treatment; conditions: Assay 3, cherries, cumulative after 16 days; Nil 88%; YBCA5 not significant (P>0.05), captan P<0.001
Experimental: (§1) Fruit-based screening assays were conducted in laboratories at the Plant and Food Research Ruakura Research Centre, Hamilton, New Zealand (PFR). PFR assays focused on dip treatment application of YBCA5 and fungicide controls.
(§2) Fruit for Monilinia fructicola and Botrytis spp. inoculation assays were carried out on sweet cherries (Prunus avium ‘Sweet Valentine’) that were picked at the harvest mature stage and sourced from the PFR Clyde Research Orchard in Central Otago on 8 Jan. 2016 for fruit based assays 1 and 2. A second harvest was carried out on 13 Jan. 2016 for fruit based assays 3 and 4.
(§3) Each cherry was then subjected to a double wash process. Wash one consisted of 10 minutes in tap water on a rotary shaker (110 rpm) followed by a five minute wash in SDW (Wash 2). […]
A Monilinia fructicola culture (isolate code MFGQ3), which had been originally isolated from an infected peach tree located in the Hamilton region during 1998, was used for the spray inoculation assays included in this section (Ruakura based assay). […] This stock suspension was then filtered using a 70 μm cell strainer (to remove mycelial fragments), the concentration determined using a haemocytometer and then adjusted, by dilution with SDW+Tw 80 (0.05%) to a final concentration of 1×10^4 conidia/mL. […]

Botrytis spp. [3] = assay: Cherry inoculation assays 2 and 4: Botrytis spp. fruit rot of ‘Sweet Valentine’ cherries, dip treatment; conditions: Assay 4, cherries, cumulative after 16 days; nil 67%; not significantly reduced (P>0.05)
Experimental: as §1, §2, §3
A Botrytis spp. culture (isolate code 09-2), which had been originally isolated from an infected kiwifruit located in the Bay of Plenty region during the 2000s, was used for the spray inoculation assays included in this section carried out on cherries. […] This stock suspension was then filtered using a 70 μm cell strainer (70 μm mesh) to remove mycelial fragments, the concentration determined using a haemocytometer and then adjusted, by dilution with SDW+Tw 80 (0.01% v/v) to a final concentration of 1×10^5 conidia/mL. […]

Structure (SMILES)	Severity of spotting (% leaf area) ([1]; assessed Nov. 11, 2015, Nil control 0.24, LSD 0.099) [b % leaf area]	Severity of bud browning (No. sepals) ([1]; assessed Nov. 11, 2015, Nil control 1.29, LSD 0.226) [b No. sepals]	% leaves with spotting (incidence) ([1]; assessed Nov. 11, 2015, Nil control 50, LSD 8.0) [b %]	% buds with necrosis (incidence) ([1]; assessed Nov. 11, 2015, Nil control 61, LSD 9.9) [b %]	incidence of Botrytis spp. fruit rot (Botrytis spp. [2]) [%]	incidence of Monilinia fruit rot (Monilinia fructicola) [%]	incidence of Botrytis spp. fruit rot (Botrytis spp. [3]) [%]
[Cu+2].[OH-].[OH-] [Kocide Opti, Copper Hydroxide]	0.07	0.80	27	45	–	–	–
O=C1C2CC=CCC2C(=O)N1SC(Cl)(Cl)Cl (stereo not shown) [captan]	–	–	–	–	10	12	43
